For 36 molecules, IC50 results are on record in patent publication US11117901B2, “Substituted pyrazolo[4,3-h]quinazolines as choline kinase inhibitors” (NERVIANO MEDICAL SCIENCES S.R.L., priority 2017, dated 2021).

Structures are written as SMILES. A value given as a limit tells only on which side of the number the result lay.

One assay concerns the target T1, Δ49N-hChoKα (Homo sapiens, UniProt P35790).
T1 construct: cDNA fragment 362-1534, corresponding to aminoacids 50 457; GST (N, cleaved yes); PreScission Protease recognition site (N); made in house; host or cells: Escherichia coli BL21pLysS (DE3)
Briefly: Biochemical kinase inhibition assay (Kinase-Glo luminescent) on Δ49N-hChoKα. The conditions noted are these: recombinant Δ49N-hChoKα 2.2 nM, ATP 5 μM, choline 5 μM, 60 min rt; read-out: ChoKα IC50. The protocol:
(§1) HumanΔ49ChoKα ([…]Δ49N-hChoKα) cDNA fragment 362-1534, corresponding to aminoacids 50 457 (J. Mol. Biol. 2006, 364, 136-151), and hChoKβ full length (FL), corresponding to aminoacids 2-395 ((PLoS ONE 2009, 4, e7819), were amplified by PCR from human library and cloned, inserting upstream a Prescission Protease recognition site, in pDonor 221 vector, using the Gateway Technology® (Invitrogen). After sequence control, LR reaction was performed in the final expression pGEX 2Tg vector. Both the proteins were expressed in Escherichia coli BL21pLysS (DE3) strain in auto-induction (Kessler) medium in the presence of […] carbenicillin at 25° C. for 16 h. Cells were harvested by centrifugation, the pellet was re-suspended in Lysis buffer (50 mM Tris-HCl pH 7.8, 150 mM NaCl, 10% glycerol, 0.2% CHAPS, 20 mM DTT, Protease Inhibitor Cocktail Tablets from Roche Biochemicals) and lysed by Gaulin homogenizer (Niro Soavi). The lysate was cleared by centrifugation. The supernatant was added to GSH resin and let flow by gravity. The GSH resin was washed with 5 column volume (CV) of cold wash buffer (50 mM Tris-HCl pH 7.8, 150 mM NaCl, 10% glycerol), then with 10 CV of the same buffer containing 2 mM of DTT. Both GST-Δ49N-hChoKα and hChoKβ were subjected to on-column cleavage of the GST tag with Prescission Protease overnight. The eluted cleaved proteins were further purified by ion exchange (ResQ 6 mL chromatography column from GE healthcare) with a gradient from 50 to 500 mM NaCl in 30 CV. The fractions containing […]Δ49N-hChoKα or hChoKβ were pooled, concentrated and gel filtered on a Superdex200 16/60 (GE Healthcare). The final protein concentration was estimated using the Bradford assay. All the samples purified were resolved by SDS-PAGE.
(§2) Biochemical Kinase inhibition Assay on Δ49N-hChoKα and hChoKβFL
(§3) The biochemical activity of compounds against Δ49N-ChoKα and ChoK3 FL were determined using the Kinase-Glo™ Luminescent Kinase Assay (Promega cat. V6711). The assay is based on incubation of the recombinant Δ49N-hChoKα and hChoKβ FL produced in house, 2.2 nM and 30 nM, respectively, with the specific substrates, choline (Sigma-Aldrich-C7017) and ATP, followed by quantification, at the end of reaction time, of the residual not reacted ATP.
(§4) Compounds were 3-fold serially diluted from 10 to 0.0005 μM, then incubated for 60 minutes at room temperature in the presence of ATP 5 μM, choline (5 μM for ChoKα and 20 μM for ChoKβ) and enzyme in a final volume of 19 μL of kinase buffer (50 mM Hepes pH 7.5, 10 mM MgCl2, 1 mM DTT, 3 μM Na3VO4 and 0.2 mg/mL BSA). The final concentration of DMSO was 1%. The assay was run in a robotized format on 384-well plates (Perkin Elmer cat. #6005301).
(§5) At the end of the incubation, an amount of 19 μL of KinaseGlo Reagent was added to each well to stop the reaction and after 30 minutes the luminescence signal was measured using ViewLux reader (Perkin Elmer).
(§6) All information about plate dilution, distribution and raw data of inhibition are tracked via barcode reading and stored in an Oracle DB. The data per each molecule are analyzed by an internally customized version of the SW package “Assay Explorer” which provides sigmoidal fittings of the ten-dilution curves for IC50 determination using a 4 parameter logistic equation: y=bottom+(top−bottom)/(1+10^((log IC50−x)*slope)) where x is the logarithm of the inhibitor concentration, y is the response; y starts at bottom and goes to top with a sigmoid shape.

For a further assay, the target named is T2, hChoKβ FL (Homo sapiens, UniProt Q9Y259).
T2 construct: hChoKβ full length (FL), corresponding to aminoacids 2-395; GST (N, cleaved yes); PreScission Protease recognition site (N); made in house; host or cells: Escherichia coli BL21pLysS (DE3)
Description: Biochemical kinase inhibition assay (Kinase-Glo luminescent) on hChoKβ FL. The conditions noted are these: recombinant hChoKβ FL 30 nM, ATP 5 μM, choline 20 μM, 60 min rt; read-out: ChoKβ IC50. The protocol: as §1, §2, §3, §4, §5, §6
A general note: Kinase-Glo measures the ATP left after a reaction by luminescence.

T1 sequence (P35790 50-439 isoform P35790-2): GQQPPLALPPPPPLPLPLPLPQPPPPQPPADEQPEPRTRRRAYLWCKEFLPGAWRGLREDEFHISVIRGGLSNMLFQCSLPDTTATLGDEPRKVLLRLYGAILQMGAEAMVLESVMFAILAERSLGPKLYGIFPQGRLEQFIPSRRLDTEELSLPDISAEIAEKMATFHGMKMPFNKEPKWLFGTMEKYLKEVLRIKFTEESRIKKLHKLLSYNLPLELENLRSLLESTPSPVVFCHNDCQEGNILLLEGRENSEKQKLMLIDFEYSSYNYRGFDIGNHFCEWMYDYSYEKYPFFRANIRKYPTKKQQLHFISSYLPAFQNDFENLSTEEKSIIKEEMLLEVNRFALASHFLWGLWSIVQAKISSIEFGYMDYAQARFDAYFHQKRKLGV
T2 sequence (Q9Y259 2-395): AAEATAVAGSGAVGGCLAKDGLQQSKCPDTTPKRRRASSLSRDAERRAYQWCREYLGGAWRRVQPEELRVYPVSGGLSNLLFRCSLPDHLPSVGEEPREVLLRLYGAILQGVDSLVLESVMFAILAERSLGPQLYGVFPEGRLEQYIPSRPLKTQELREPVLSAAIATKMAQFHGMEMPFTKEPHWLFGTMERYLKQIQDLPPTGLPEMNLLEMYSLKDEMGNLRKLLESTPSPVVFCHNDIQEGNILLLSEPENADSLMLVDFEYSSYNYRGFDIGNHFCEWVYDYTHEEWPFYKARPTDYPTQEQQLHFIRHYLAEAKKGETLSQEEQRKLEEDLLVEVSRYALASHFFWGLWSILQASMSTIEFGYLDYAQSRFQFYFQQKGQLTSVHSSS

What is called IC50 is the concentration that inhibits the measured activity by half. Turning to `CC(C)(C)OC(=O)NC1CCN(C(=O)c2ccc(NC(=O)c3n[nH]c4c3C(C)(C)Cc3cnc(N)nc3-4)cc2)CC1` [compound 46], the IC50 on Δ49N-hChoKα is 110 nM; at hChoKβ FL, 1620 nM.
For `CC1(C)Cc2cnc(N)nc2-c2[nH]nc(C(=O)Nc3nc(CC(=O)N4CCC(N5CCCCCC5)CC4)cs3)c21` [compound 47] the same measures were 2 nM and 86 nM.
In the same order, the values of `CC1(C)Cc2cnc(N)nc2-c2[nH]nc(C(=O)Nc3ccc(C(=O)N4CCC(N)CC4)cc3)c21` [compound 49] are 623 nM and 765 nM.
For `CC1(C)Cc2cnc(N)nc2-c2[nH]nc(C(=O)Nc3ccc(C(=O)N4CCC(N5CCOCC5)CC4)cc3)c21` [compound 50] the same measures were 215 nM and 716 nM.
As for `CC1(C)Cc2cnc(N)nc2-c2[nH]nc(C(=O)Nc3ccc(C(=O)N4CCC(N5CCC(F)(F)CC5)CC4)cc3)c21` [compound 51], the IC50 was determined as 151 nM on Δ49N-hChoKα and 273 nM at hChoKβ FL.
In the same order, the values of `CC1CCN(C2CCN(C(=O)c3ccc(NC(=O)c4n[nH]c5c4C(C)(C)Cc4cnc(N)nc4-5)cc3)CC2)CC1` [compound 52] are 3 nM and 70 nM.
On to `CC1(C)Cc2cnc(N)nc2-c2[nH]nc(C(=O)Nc3ccc(C(=O)N4CCC(NC(=O)CCCO)CC4)cc3)c21` [compound 53], for which the half-inhibitory concentration (IC50) at Δ49N-hChoKα stood at 715 nM; at hChoKβ FL, 3510 nM.
On to `CC1(C)Cc2cnc(N)nc2-c2[nH]nc(C(=O)Nc3ccc(C(=O)N4CCC(N5CCOC5=O)CC4)cc3)c21` [compound 56], for which the IC50 at Δ49N-hChoKα was 210 nM; at hChoKβ FL, 810 nM.
On to `CC1CCN(C2CCN(C(=O)Cc3csc(NC(=O)c4n[nH]c5c4C(C)(C)Cc4cnc(N)nc4-5)n3)CC2)CC1` [compound 58], for which the IC50 on Δ49N-hChoKα amounted to 2 nM; on hChoKβ FL it was 81 nM.
For `CC1(C)Cc2cnc(N)nc2-c2[nH]nc(C(=O)Nc3ccc(C(=O)Nc4ccc(CN5CCCCC5)cc4)cc3)c21` [compound 59] the same measures were 32 nM and 734 nM.
Turning to `CC1(C)Cc2cnc(N)nc2-c2[nH]nc(C(=O)Nc3nccs3)c21` [compound 61], the results for the IC50 at Δ49N-hChoKα and at hChoKβ FL were 241 nM and 2630 nM, respectively.
Turning to `CC1(C)Cc2cnc(N)nc2-c2[nH]nc(C(=O)Nc3nc4ccccc4s3)c21` [compound 62], the 50% inhibitory concentration (IC50) is 85 nM on Δ49N-hChoKα and 465 nM on hChoKβ FL.
For `COc1ccc2nc(NC(=O)c3n[nH]c4c3C(C)(C)Cc3cnc(N)nc3-4)sc2c1` [compound 63] the same measures were 26 nM and 447 nM.
In the same order, the values of `CC1(C)Cc2cnc(N)nc2-c2[nH]nc(C(=O)Nc3nc4ccc(Cl)cc4s3)c21` [compound 64] are 306 nM and 4920 nM.
For `Cc1cnc(NC(=O)c2n[nH]c3c2C(C)(C)Cc2cnc(N)nc2-3)s1` [compound 65] the same measures were 139 nM and 1610 nM.
Turning to `CC1(C)Cc2cnc(N)nc2-c2[nH]nc(C(=O)Nc3ncc(Cl)s3)c21` [compound 66], the IC50 stood at 710 nM at Δ49N-hChoKα and 5810 nM on hChoKβ FL.
For `CC1(C)Cc2cnc(N)nc2-c2[nH]nc(C(=O)Nc3nc(C(=O)O)cs3)c21` [compound 67] the same measures were 81 nM and 703 nM.
For `CC1(C)Cc2cnc(N)nc2-c2[nH]nc(C(=O)Nc3nc(C(=O)NC4CCCCC4)cs3)c21` [compound 68] the same measures were 161 nM and greater than 10000 nM.
In the same order, the values of `CN1CCC(NC(=O)c2csc(NC(=O)c3n[nH]c4c3C(C)(C)Cc3cnc(N)nc3-4)n2)CC1` [compound 69] are 36 nM and 88 nM.
Take `CC1(C)Cc2cnc(N)nc2-c2[nH]nc(C(=O)Nc3nc(C(=O)N4CCC(N5CCCCC5)CC4)cs3)c21` [compound 70]: the values for the 50% inhibitory concentration (IC50) at Δ49N-hChoKα and at hChoKβ FL were 35 nM and 1080 nM, respectively.
Turning to `CC(C)(C)NC(=O)NC1CCN(C(=O)Cc2csc(NC(=O)c3n[nH]c4c3C(C)(C)Cc3cnc(N)nc3-4)n2)CC1` [compound 71], the half-inhibitory concentration (IC50) at Δ49N-hChoKα came out at 9 nM; at hChoKβ FL, 1950 nM.
In the same order, the values of `CC1(C)Cc2cnc(N)nc2-c2[nH]nc(C(=O)Nc3ncc(CC(=O)O)s3)c21` [compound 72] are 268 nM and 2510 nM.
`CC1(C)Cc2cnc(N)nc2-c2[nH]nc(C(=O)Nc3ncc(CC(=O)NC4CCCCC4)s3)c21` [compound 73]: the IC50 on Δ49N-hChoKα is 138 nM; at hChoKβ FL, 604 nM.
In the same order, the values of `CN1CCC(NC(=O)Cc2cnc(NC(=O)c3n[nH]c4c3C(C)(C)Cc3cnc(N)nc3-4)s2)CC1` [compound 74] are 79 nM and 1350 nM.
With `CC1(C)Cc2cnc(N)nc2-c2[nH]nc(C(=O)Nc3ncc(CC(=O)N4CCC(N5CCCCC5)CC4)s3)c21` [compound 75], the IC50 came to 47 nM on Δ49N-hChoKα and 1750 nM on hChoKβ FL.
In the same order, the values of `Cc1nc(NC(=O)c2n[nH]c3c2C(C)(C)Cc2cnc(N)nc2-3)sc1C(=O)NC1CCCCC1` [compound 77] are 200 nM and 1160 nM.
On to `Cc1nc(NC(=O)c2n[nH]c3c2C(C)(C)Cc2cnc(N)nc2-3)sc1C(=O)N1CCC(N2CCCCC2)CC1` [compound 78], for which the half-maximal inhibitory concentration (IC50) on Δ49N-hChoKα came out at 218 nM; on hChoKβ FL, 2590 nM.
Turning to `Cc1nc(NC(=O)c2n[nH]c3c2C(C)(C)Cc2cnc(N)nc2-3)sc1C(=O)NC1CCN(C)CC1` [compound 79], the IC50 was 69 nM at Δ49N-hChoKα and 2380 nM on hChoKβ FL.
`CC1CCN(C2CCN(C(=O)Cc3csc(NC(=O)c4nn(C)c5c4C(C)(C)Cc4cnc(N)nc4-5)n3)CC2)CC1` [compound 80]: the half-inhibitory concentration (IC50) at Δ49N-hChoKα came out at 5 nM; on hChoKβ FL, 3160 nM.
In the same order, the values of `CCOC(=O)c1cnc(NC(=O)c2n[nH]c3c2C(C)(C)Cc2cnc(N)nc2-3)s1` [compound 81] are 428 nM and 5340 nM.
Turning to `CC1(C)Cc2cnc(N)nc2-c2[nH]nc(C(=O)Nc3ncc(C(=O)O)s3)c21` [compound 82], the results for the IC50 on Δ49N-hChoKα and on hChoKβ FL were 300 nM and 1730 nM, respectively.
For `CC1(C)Cc2cnc(N)nc2-c2[nH]nc(C(=O)Nc3ncc(C(=O)N4CCC(N5CCCCC5)CC4)s3)c21` [compound 84] the same measures were 111 nM and 1330 nM.
For `CNc1ncc2c(n1)-c1c(c(C(=O)Nc3nc(CC(=O)N4CCC(N5CCC(C)CC5)CC4)cs3)nn1C)C(C)(C)C2` [compound 85] the same measures were 52 nM and greater than 10000 nM.
In the same order, the values of `CN1CCC(NC(=O)Cc2csc(NC(=O)c3n[nH]c4c3C(C)(C)Cc3cnc(N)nc3-4)n2)CC1` [compound 86] are 57 nM and 1390 nM.
Turning to `CC1(C)Cc2cnc(N)nc2-c2[nH]nc(C(=O)Nc3nc(CC(=O)N4CC[C@@H](O)C4)cs3)c21` [compound 87], the results for the 50% inhibitory concentration (IC50) on Δ49N-hChoKα and on hChoKβ FL were 149 nM and greater than 10000 nM, respectively.
For `CC1(C)Cc2cnc(N)nc2-c2[nH]nc(C(=O)Nc3nc(CC(=O)N4CC[C@H](O)C4)cs3)c21` [compound 88], the results for the IC50 on Δ49N-hChoKα and at hChoKβ FL were 141 nM and greater than 10000 nM, respectively.
